Assay results: PubChem BioAssay (NCI)
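Protocol summary: plate cells (96-well), add compound at 5 concentrations, incubate 48 h, interpolate endpoints linearly. Here, GI50 denotes the concentration required for 50% inhibition of growth. TGI marks complete inhibition of growth.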

Columns and labels:
Experiment in all cases: NCI-60 cell line screen, 48 h
SF-539 CNS = system: SF-539 CNS
OVCAR-5 ovarian = system: OVCAR-5 ovarian
SK-OV-3 ovarian = system: SK-OV-3 ovarian
SNB-19 CNS = system: SNB-19 CNS
SK-MEL-5 melanoma = system: SK-MEL-5 melanoma
SW-620 colon = system: SW-620 colon
CCRF-CEM leukemia = system: CCRF-CEM leukemia
MOLT-4 leukemia = system: MOLT-4 leukemia
TK-10 renal = system: TK-10 renal
EKVX NSCLC = system: EKVX NSCLC

CC1(C)CCc2c(c(N=Nc3ccccc3F)c3ccccc3c2O)O1
GI50 (SF-539 CNS): 21.2 µM
TGI (SF-539 CNS): 40.4 µM
GI50 (OVCAR-5 ovarian): 73.7 µM
TGI (OVCAR-5 ovarian): > 100 µM
GI50 (SK-OV-3 ovarian): 25.7 µM
TGI (SK-OV-3 ovarian): 75.9 µM
GI50 (SNB-19 CNS): 36.8 µM
TGI (SNB-19 CNS): > 100 µM
GI50 (SK-MEL-5 melanoma): 52.6 µM
TGI (SK-MEL-5 melanoma): > 100 µM
GI50 (SW-620 colon): 32.8 µM
TGI (SW-620 colon): > 100 µM
GI50 (CCRF-CEM leukemia): > 100 µM
TGI (CCRF-CEM leukemia): > 100 µM
GI50 (MOLT-4 leukemia): > 100 µM
TGI (MOLT-4 leukemia): > 100 µM
GI50 (TK-10 renal): 68.2 µM
TGI (TK-10 renal): > 100 µM
GI50 (EKVX NSCLC): > 100 µM
TGI (EKVX NSCLC): > 100 µM

COc1ccccc1NC(=O)C1=C(C)NC(C)=C(C(=O)Nc2ccccc2OC)C1c1ccccc1Cl
TGI (SF-539 CNS): > 100 µM
TGI (OVCAR-5 ovarian): > 100 µM
TGI (SK-OV-3 ovarian): > 100 µM
TGI (SNB-19 CNS): > 100 µM
TGI (SK-MEL-5 melanoma): > 100 µM
TGI (SW-620 colon): > 100 µM
TGI (CCRF-CEM leukemia): > 100 µM
TGI (MOLT-4 leukemia): > 100 µM
TGI (TK-10 renal): > 100 µM
TGI (EKVX NSCLC): > 100 µM

O=C(O)CCSC(=O)Nc1cccc2ccccc12
TGI (SF-539 CNS): > 100 µM
TGI (OVCAR-5 ovarian): > 100 µM
TGI (SK-OV-3 ovarian): > 100 µM
TGI (SNB-19 CNS): > 100 µM
TGI (SK-MEL-5 melanoma): > 100 µM
TGI (SW-620 colon): > 100 µM
TGI (CCRF-CEM leukemia): > 100 µM
TGI (MOLT-4 leukemia): > 100 µM
TGI (TK-10 renal): > 100 µM
TGI (EKVX NSCLC): > 100 µM

CC[O-].CC[O-].O=C([CH-]C(=O)c1ccccc1)CCCCCCC(=O)[CH-]C(=O)c1ccccc1.[Ti+4]
GI50 (SF-539 CNS): > 100 µM
TGI (SF-539 CNS): > 100 µM
GI50 (OVCAR-5 ovarian): > 100 µM
TGI (OVCAR-5 ovarian): > 100 µM
GI50 (SK-OV-3 ovarian): > 100 µM
TGI (SK-OV-3 ovarian): > 100 µM
GI50 (SNB-19 CNS): > 100 µM
TGI (SNB-19 CNS): > 100 µM
GI50 (SK-MEL-5 melanoma): > 100 µM
TGI (SK-MEL-5 melanoma): > 100 µM
GI50 (SW-620 colon): > 100 µM
TGI (SW-620 colon): > 100 µM
GI50 (CCRF-CEM leukemia): > 100 µM
TGI (CCRF-CEM leukemia): > 100 µM
GI50 (MOLT-4 leukemia): > 100 µM
TGI (MOLT-4 leukemia): > 100 µM
GI50 (TK-10 renal): > 100 µM
TGI (TK-10 renal): > 100 µM
GI50 (EKVX NSCLC): > 100 µM
TGI (EKVX NSCLC): > 100 µM

C#Cc1cccc(NC(=O)c2cccc(NC(=O)CCl)c2)c1
GI50 (SF-539 CNS): 13 µM
TGI (SF-539 CNS): 24.5 µM
GI50 (OVCAR-5 ovarian): 15.8 µM
TGI (OVCAR-5 ovarian): 40.8 µM
GI50 (SK-OV-3 ovarian): 56.4 µM
TGI (SK-OV-3 ovarian): > 82.5 µM
GI50 (SNB-19 CNS): 31.1 µM
TGI (SNB-19 CNS): > 82.5 µM
GI50 (SK-MEL-5 melanoma): 15.1 µM
TGI (SK-MEL-5 melanoma): 28 µM
GI50 (SW-620 colon): 4.55 µM
TGI (SW-620 colon): 17 µM
GI50 (CCRF-CEM leukemia): 7.29 µM
TGI (CCRF-CEM leukemia): 54.5 µM
GI50 (MOLT-4 leukemia): 6.71 µM
TGI (MOLT-4 leukemia): 61.2 µM
GI50 (TK-10 renal): 25.9 µM
TGI (TK-10 renal): > 82.5 µM
GI50 (EKVX NSCLC): 27.2 µM
TGI (EKVX NSCLC): > 82.5 µM

O=C(Nc1cccc(C(F)(F)F)c1)c1ccc(NC2=C(Cl)C(=O)N(Cc3ccccc3)C2=O)cc1
GI50 (SF-539 CNS): 14.9 µM
TGI (SF-539 CNS): 34.1 µM
GI50 (OVCAR-5 ovarian): 16.3 µM
TGI (OVCAR-5 ovarian): 34.5 µM
GI50 (SK-OV-3 ovarian): 25.7 µM
TGI (SK-OV-3 ovarian): 82.6 µM
GI50 (SNB-19 CNS): 20.4 µM
TGI (SNB-19 CNS): 40.5 µM
GI50 (SK-MEL-5 melanoma): 4.07 µM
TGI (SK-MEL-5 melanoma): 18.1 µM
GI50 (SW-620 colon): 5.11 µM
TGI (SW-620 colon): > 100 µM
GI50 (CCRF-CEM leukemia): 3.06 µM
TGI (CCRF-CEM leukemia): > 100 µM
GI50 (MOLT-4 leukemia): 1.27 µM
TGI (MOLT-4 leukemia): 10.3 µM
GI50 (TK-10 renal): 17.9 µM
TGI (TK-10 renal): 37.4 µM
GI50 (EKVX NSCLC): 23.5 µM
TGI (EKVX NSCLC): 54.4 µM

FC(F)(F)c1cc(NC(=S)N2c3ccccc3-n3cccc3C2c2cccnc2)cc(C(F)(F)F)c1 (stereo not given)
GI50 (SF-539 CNS): 14.7 µM
TGI (SF-539 CNS): 37.4 µM
GI50 (OVCAR-5 ovarian): 22 µM
TGI (OVCAR-5 ovarian): 59.2 µM
GI50 (SK-OV-3 ovarian): 11.9 µM
TGI (SK-OV-3 ovarian): 27.5 µM
GI50 (SNB-19 CNS): 7.55 µM
TGI (SNB-19 CNS): 29.9 µM
GI50 (SK-MEL-5 melanoma): 11.6 µM
TGI (SK-MEL-5 melanoma): 23.9 µM
GI50 (SW-620 colon): 4.31 µM
TGI (SW-620 colon): 19.6 µM
GI50 (CCRF-CEM leukemia): 4.1 µM
TGI (CCRF-CEM leukemia): 33.7 µM
GI50 (MOLT-4 leukemia): 3.96 µM
TGI (MOLT-4 leukemia): 20.2 µM
GI50 (TK-10 renal): 2.9 µM
TGI (TK-10 renal): 9.39 µM
GI50 (EKVX NSCLC): 9.67 µM
TGI (EKVX NSCLC): 37.8 µM

C#CCOC(=O)/C=C/C(=O)Oc1ccc2c(C)cc(=O)oc2c1
GI50 (SF-539 CNS): > 100 µM
TGI (SF-539 CNS): > 100 µM
GI50 (OVCAR-5 ovarian): > 100 µM
TGI (OVCAR-5 ovarian): > 100 µM
GI50 (SK-OV-3 ovarian): > 100 µM
TGI (SK-OV-3 ovarian): > 100 µM
GI50 (SNB-19 CNS): > 100 µM
TGI (SNB-19 CNS): > 100 µM
GI50 (SK-MEL-5 melanoma): > 100 µM
TGI (SK-MEL-5 melanoma): > 100 µM
GI50 (SW-620 colon): > 100 µM
TGI (SW-620 colon): > 100 µM
GI50 (CCRF-CEM leukemia): > 100 µM
TGI (CCRF-CEM leukemia): > 100 µM
GI50 (MOLT-4 leukemia): > 100 µM
TGI (MOLT-4 leukemia): > 100 µM
GI50 (TK-10 renal): > 100 µM
TGI (TK-10 renal): > 100 µM
GI50 (EKVX NSCLC): > 100 µM
TGI (EKVX NSCLC): > 100 µM

Fc1ccc(-c2ncn(CCCN3CCOCC3)c2-c2ccncc2)cc1
GI50 (SF-539 CNS): > 25 µM
TGI (SF-539 CNS): > 25 µM
GI50 (OVCAR-5 ovarian): > 25 µM
TGI (OVCAR-5 ovarian): > 25 µM
GI50 (SK-OV-3 ovarian): > 25 µM
TGI (SK-OV-3 ovarian): > 25 µM
GI50 (SNB-19 CNS): > 25 µM
TGI (SNB-19 CNS): > 25 µM
GI50 (SK-MEL-5 melanoma): > 25 µM
TGI (SK-MEL-5 melanoma): > 25 µM
GI50 (SW-620 colon): > 25 µM
TGI (SW-620 colon): > 25 µM
GI50 (CCRF-CEM leukemia): > 25 µM
TGI (CCRF-CEM leukemia): > 25 µM
GI50 (MOLT-4 leukemia): > 25 µM
TGI (MOLT-4 leukemia): > 25 µM
GI50 (TK-10 renal): > 25 µM
TGI (TK-10 renal): > 25 µM
GI50 (EKVX NSCLC): > 25 µM
TGI (EKVX NSCLC): > 25 µM

COc1ccc(-c2cc(-c3ccc(OC)cc3)nc(NCCCNc3ccnc4cc(Cl)ccc34)n2)cc1
GI50 (SF-539 CNS): 7.16 µM
TGI (SF-539 CNS): 21.4 µM
GI50 (OVCAR-5 ovarian): 1.67 µM
TGI (OVCAR-5 ovarian): 3.14 µM
GI50 (SK-OV-3 ovarian): 1.71 µM
TGI (SK-OV-3 ovarian): 3.14 µM
GI50 (SNB-19 CNS): 1.96 µM
TGI (SNB-19 CNS): 3.99 µM
GI50 (SK-MEL-5 melanoma): 1.54 µM
TGI (SK-MEL-5 melanoma): 2.89 µM
GI50 (SW-620 colon): 1.69 µM
TGI (SW-620 colon): 3.34 µM
GI50 (CCRF-CEM leukemia): 2.26 µM
TGI (CCRF-CEM leukemia): 6.98 µM
GI50 (MOLT-4 leukemia): 1.84 µM
TGI (MOLT-4 leukemia): 6.09 µM
GI50 (TK-10 renal): 1.97 µM
TGI (TK-10 renal): 3.56 µM
GI50 (EKVX NSCLC): 1.67 µM
TGI (EKVX NSCLC): 4.17 µM

COc1ccc(CNCCCN2C(=O)c3ccc4c5c(ccc(c35)C2=O)C(=O)N(CCCNCc2ccc(OC)c(OC)c2OC)C4=O)c(OC)c1OC
GI50 (SF-539 CNS): 0.102 µM
TGI (SF-539 CNS): 0.235 µM
GI50 (OVCAR-5 ovarian): 0.108 µM
TGI (OVCAR-5 ovarian): 0.25 µM
GI50 (SK-OV-3 ovarian): 0.264 µM
TGI (SK-OV-3 ovarian): 0.848 µM
GI50 (SNB-19 CNS): 0.0877 µM
TGI (SNB-19 CNS): 0.18 µM
GI50 (SK-MEL-5 melanoma): 0.0792 µM
TGI (SK-MEL-5 melanoma): 0.147 µM
GI50 (SW-620 colon): 0.0932 µM
TGI (SW-620 colon): 0.225 µM
GI50 (CCRF-CEM leukemia): 0.137 µM
TGI (CCRF-CEM leukemia): 2.04 µM
GI50 (MOLT-4 leukemia): 0.121 µM
TGI (MOLT-4 leukemia): 0.291 µM
GI50 (TK-10 renal): 0.0981 µM
TGI (TK-10 renal): 0.269 µM
GI50 (EKVX NSCLC): 0.0929 µM
TGI (EKVX NSCLC): 0.176 µM

COc1ccc(C2CC(c3ccc(OC)cc3O)=NN2c2ccc(S(N)(=O)=O)cc2)cc1 (stereo not given)
GI50 (SF-539 CNS): 30.2 µM
TGI (SF-539 CNS): > 100 µM
GI50 (OVCAR-5 ovarian): 79.9 µM
TGI (OVCAR-5 ovarian): > 100 µM
GI50 (SK-OV-3 ovarian): 26.1 µM
TGI (SK-OV-3 ovarian): > 100 µM
GI50 (SNB-19 CNS): 27.3 µM
TGI (SNB-19 CNS): > 100 µM
GI50 (SK-MEL-5 melanoma): 14.9 µM
TGI (SK-MEL-5 melanoma): > 100 µM
GI50 (SW-620 colon): 16 µM
TGI (SW-620 colon): > 100 µM
GI50 (CCRF-CEM leukemia): 16.1 µM
TGI (CCRF-CEM leukemia): > 100 µM
GI50 (MOLT-4 leukemia): 2.88 µM
TGI (MOLT-4 leukemia): 36.6 µM
GI50 (TK-10 renal): 7.18 µM
TGI (TK-10 renal): > 100 µM
GI50 (EKVX NSCLC): 4.48 µM
TGI (EKVX NSCLC): > 100 µM

COc1cccc(C=O)c1[O-].COc1cccc(C=O)c1[O-].[Zn+2]
TGI (SF-539 CNS): > 100 µM
TGI (OVCAR-5 ovarian): > 100 µM
TGI (SK-OV-3 ovarian): > 100 µM
TGI (SNB-19 CNS): > 100 µM
TGI (SK-MEL-5 melanoma): > 100 µM
TGI (SW-620 colon): > 100 µM
TGI (CCRF-CEM leukemia): > 100 µM
TGI (MOLT-4 leukemia): > 100 µM
TGI (TK-10 renal): > 100 µM
TGI (EKVX NSCLC): > 100 µM
